{"source": "ChEMBL document CHEMBL1201862", "about": "“PubChem BioAssay data set” (2004)", "test_in_all_cases": "inhibition of tumour cell growth, NCI panel, 48 h", "key": {"A498": {"system": "A498"}, "A549": {"system": "A549"}, "ACHN": {"system": "ACHN"}, "CCRF-CEM": {"system": "CCRF-CEM"}, "COLO 205": {"system": "COLO 205"}, "DLD-1": {"system": "DLD-1"}, "DMS-273": {"system": "DMS-273"}, "EKVX": {"system": "EKVX"}, "HCC 2998": {"system": "HCC 2998"}, "HCT-116": {"system": "HCT-116"}, "HCT-15": {"system": "HCT-15"}, "HL-60": {"system": "HL-60"}, "HOP-18": {"system": "HOP-18"}, "HOP-62": {"system": "HOP-62"}, "HOP-92": {"system": "HOP-92"}, "HT-29": {"system": "HT-29"}, "IGROV-1": {"system": "IGROV-1"}, "K562": {"system": "K562"}, "KM-20L2": {"system": "KM-20L2"}, "KM12": {"system": "KM12"}, "LOX IMVI": {"system": "LOX IMVI"}, "LXFL 529": {"system": "LXFL 529"}, "M14": {"system": "M14"}, "M19-MEL": {"system": "M19-MEL"}, "MOLT-4": {"system": "MOLT-4"}, "Malme-3M": {"system": "Malme-3M"}, "NCI-H226": {"system": "NCI-H226"}, "NCI-H23": {"system": "NCI-H23"}, "NCI-H460": {"system": "NCI-H460"}, "OVCAR-3": {"system": "OVCAR-3"}, "OVCAR-4": {"system": "OVCAR-4"}, "OVCAR-5": {"system": "OVCAR-5"}, "OVCAR-8": {"system": "OVCAR-8"}, "RPMI-8226": {"system": "RPMI-8226"}, "RXF 393": {"system": "RXF 393"}, "SF-268": {"system": "SF-268"}, "SF-295": {"system": "SF-295"}, "SF-539": {"system": "SF-539"}, "SK-MEL-28": {"system": "SK-MEL-28"}, "SK-MEL-2": {"system": "SK-MEL-2"}, "SK-MEL-5": {"system": "SK-MEL-5"}, "SK-OV-3": {"system": "SK-OV-3"}, "SN12C": {"system": "SN12C"}, "SNB-75": {"system": "SNB-75"}, "SNB-78": {"system": "SNB-78"}, "SR": {"system": "SR"}, "SW-620": {"system": "SW-620"}, "TK-10": {"system": "TK-10"}, "U-251": {"system": "U-251"}, "UACC-257": {"system": "UACC-257"}, "UACC-62": {"system": "UACC-62"}, "UO-31": {"system": "UO-31"}, "DMS-114": {"system": "DMS-114"}, "SNB-19": {"system": "SNB-19"}}, "note": "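Step 1: Grow cells in 96-well plates. Step 2: Expose to compound for 48 hours at 5 concentrations. Step 3: Interpolate endpoints linearly; if unreached, use highest concentration. The concentration for 50% growth inhibition is given as GI50.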 Calls of active or inactive are those of the source. Rule as the data show it: active = GI50 up to about 1.1 µM and inactive = higher."}
{"molecule": "Cc1ccc(Sc2ccccc2[N+](=O)[O-])cc1", "values": [{"measurement": "GI50", "setting": "A498", "result": "47.6 µM (inactive)"}, {"measurement": "GI50", "setting": "A549", "result": "35 µM (inactive)"}, {"measurement": "GI50", "setting": "ACHN", "result": "43.7 µM (inactive)"}, {"measurement": "GI50", "setting": "CCRF-CEM", "result": "30.9 µM (inactive)"}, {"measurement": "GI50", "setting": "COLO 205", "result": "23.4 µM (inactive)"}, {"measurement": "GI50", "setting": "DLD-1", "result": "32.4 µM (inactive)"}, {"measurement": "GI50", "setting": "DMS-273", "result": "28.6 µM (inactive)"}, {"measurement": "GI50", "setting": "EKVX", "result": "28.6 µM (inactive)"}, {"measurement": "GI50", "setting": "HCC 2998", "result": "21 µM (inactive)"}, {"measurement": "GI50", "setting": "HCT-116", "result": "27.5 µM (inactive)"}, {"measurement": "GI50", "setting": "HCT-15", "result": 20, "unit": "µM"}, {"measurement": "GI50", "setting": "HL-60", "result": "21 µM (inactive)"}, {"measurement": "GI50", "setting": "HOP-18", "result": "> 100 µM (inactive)"}, {"measurement": "GI50", "setting": "HOP-62", "result": "32.1 µM (inactive)"}, {"measurement": "GI50", "setting": "HOP-92", "result": "19.4 µM (inactive)"}, {"measurement": "GI50", "setting": "HT-29", "result": "19.9 µM (inactive)"}, {"measurement": "GI50", "setting": "IGROV-1", "result": "83 µM (inactive)"}, {"measurement": "GI50", "setting": "K562", "result": "18.1 µM (inactive)"}, {"measurement": "GI50", "setting": "KM-20L2", "result": "33.3 µM (inactive)"}, {"measurement": "GI50", "setting": "KM12", "result": "29.4 µM (inactive)"}, {"measurement": "GI50", "setting": "LOX IMVI", "result": "27.4 µM (inactive)"}, {"measurement": "GI50", "setting": "LXFL 529", "result": "29.6 µM (inactive)"}, {"measurement": "GI50", "setting": "M14", "result": "29 µM (inactive)"}, {"measurement": "GI50", "setting": "M19-MEL", "result": "32.1 µM (inactive)"}, {"measurement": "GI50", "setting": "MOLT-4", "result": "21.9 µM (inactive)"}, {"measurement": "GI50", "setting": "Malme-3M", "result": "32.3 µM (inactive)"}, {"measurement": "GI50", "setting": "NCI-H226", "result": "21.7 µM (inactive)"}, {"measurement": "GI50", "setting": "NCI-H23", "result": "27.4 µM (inactive)"}, {"measurement": "GI50", "setting": "NCI-H460", "result": "31.1 µM (inactive)"}, {"measurement": "GI50", "setting": "OVCAR-3", "result": "31 µM (inactive)"}, {"measurement": "GI50", "setting": "OVCAR-4", "result": "27.4 µM (inactive)"}, {"measurement": "GI50", "setting": "OVCAR-5", "result": "72.3 µM (inactive)"}, {"measurement": "GI50", "setting": "OVCAR-8", "result": "32.2 µM (inactive)"}, {"measurement": "GI50", "setting": "RPMI-8226", "result": "42.4 µM (inactive)"}, {"measurement": "GI50", "setting": "RXF 393", "result": "18 µM (inactive)"}, {"measurement": "GI50", "setting": "SF-268", "result": "38.2 µM (inactive)"}, {"measurement": "GI50", "setting": "SF-295", "result": "21.6 µM (inactive)"}, {"measurement": "GI50", "setting": "SF-539", "result": "33 µM (inactive)"}, {"measurement": "GI50", "setting": "SK-MEL-28", "result": "21.9 µM (inactive)"}, {"measurement": "GI50", "setting": "SK-MEL-2", "result": "27.9 µM (inactive)"}, {"measurement": "GI50", "setting": "SK-MEL-5", "result": "15.3 µM (inactive)"}, {"measurement": "GI50", "setting": "SK-OV-3", "result": "34.4 µM (inactive)"}, {"measurement": "GI50", "setting": "SN12C", "result": "29.8 µM (inactive)"}, {"measurement": "GI50", "setting": "SNB-75", "result": "5.71 µM (inactive)"}, {"measurement": "GI50", "setting": "SNB-78", "result": "36.6 µM (inactive)"}, {"measurement": "GI50", "setting": "SR", "result": "31.3 µM (inactive)"}, {"measurement": "GI50", "setting": "SW-620", "result": "25.9 µM (inactive)"}, {"measurement": "GI50", "setting": "TK-10", "result": "37.8 µM (inactive)"}, {"measurement": "GI50", "setting": "U-251", "result": "23 µM (inactive)"}, {"measurement": "GI50", "setting": "UACC-257", "result": "20 µM (inactive)"}, {"measurement": "GI50", "setting": "UACC-62", "result": "37.3 µM (inactive)"}, {"measurement": "GI50", "setting": "UO-31", "result": "28.8 µM (inactive)"}]}
{"molecule": "CCc1nnc(-c2nsc3ccccc23)s1", "values": [{"measurement": "GI50", "setting": "A549", "result": "> 100 µM (inactive)"}, {"measurement": "GI50", "setting": "ACHN", "result": "> 100 µM (inactive)"}, {"measurement": "GI50", "setting": "CCRF-CEM", "result": "42.5 µM (inactive)"}, {"measurement": "GI50", "setting": "COLO 205", "result": "> 100 µM (inactive)"}, {"measurement": "GI50", "setting": "DMS-114", "result": "> 100 µM (inactive)"}, {"measurement": "GI50", "setting": "DMS-273", "result": "> 100 µM (inactive)"}, {"measurement": "GI50", "setting": "EKVX", "result": "23 µM (inactive)"}, {"measurement": "GI50", "setting": "HCC 2998", "result": "> 100 µM (inactive)"}, {"measurement": "GI50", "setting": "HCT-116", "result": "> 100 µM (inactive)"}, {"measurement": "GI50", "setting": "HCT-15", "result": 72.4, "unit": "µM"}, {"measurement": "GI50", "setting": "HL-60", "result": "> 100 µM (inactive)"}, {"measurement": "GI50", "setting": "HOP-18", "result": "> 100 µM (inactive)"}, {"measurement": "GI50", "setting": "HOP-62", "result": "> 100 µM (inactive)"}, {"measurement": "GI50", "setting": "HOP-92", "result": "69.5 µM (inactive)"}, {"measurement": "GI50", "setting": "HT-29", "result": "> 100 µM (inactive)"}, {"measurement": "GI50", "setting": "IGROV-1", "result": "76.9 µM (inactive)"}, {"measurement": "GI50", "setting": "K562", "result": "54.7 µM (inactive)"}, {"measurement": "GI50", "setting": "KM-20L2", "result": "63.5 µM (inactive)"}, {"measurement": "GI50", "setting": "KM12", "result": "> 100 µM (inactive)"}, {"measurement": "GI50", "setting": "LOX IMVI", "result": "> 100 µM (inactive)"}, {"measurement": "GI50", "setting": "LXFL 529", "result": "> 100 µM (inactive)"}, {"measurement": "GI50", "setting": "M14", "result": "> 100 µM (inactive)"}, {"measurement": "GI50", "setting": "MOLT-4", "result": "38.5 µM (inactive)"}, {"measurement": "GI50", "setting": "NCI-H23", "result": "> 100 µM (inactive)"}, {"measurement": "GI50", "setting": "NCI-H460", "result": "> 100 µM (inactive)"}, {"measurement": "GI50", "setting": "OVCAR-3", "result": "24.1 µM (inactive)"}, {"measurement": "GI50", "setting": "OVCAR-4", "result": "> 100 µM (inactive)"}, {"measurement": "GI50", "setting": "OVCAR-5", "result": "> 100 µM (inactive)"}, {"measurement": "GI50", "setting": "OVCAR-8", "result": "> 100 µM (inactive)"}, {"measurement": "GI50", "setting": "RPMI-8226", "result": "45.4 µM (inactive)"}, {"measurement": "GI50", "setting": "RXF 393", "result": "> 100 µM (inactive)"}, {"measurement": "GI50", "setting": "SF-268", "result": "> 100 µM (inactive)"}, {"measurement": "GI50", "setting": "SF-539", "result": "> 100 µM (inactive)"}, {"measurement": "GI50", "setting": "SK-MEL-28", "result": "> 100 µM (inactive)"}, {"measurement": "GI50", "setting": "SK-MEL-2", "result": "> 100 µM (inactive)"}, {"measurement": "GI50", "setting": "SK-MEL-5", "result": "> 100 µM (inactive)"}, {"measurement": "GI50", "setting": "SN12C", "result": "> 100 µM (inactive)"}, {"measurement": "GI50", "setting": "SNB-19", "result": "> 100 µM (inactive)"}, {"measurement": "GI50", "setting": "SNB-75", "result": "35.9 µM (inactive)"}, {"measurement": "GI50", "setting": "SNB-78", "result": "> 100 µM (inactive)"}, {"measurement": "GI50", "setting": "SR", "result": "53 µM (inactive)"}, {"measurement": "GI50", "setting": "SW-620", "result": "> 100 µM (inactive)"}, {"measurement": "GI50", "setting": "TK-10", "result": "> 100 µM (inactive)"}, {"measurement": "GI50", "setting": "U-251", "result": "> 100 µM (inactive)"}, {"measurement": "GI50", "setting": "UACC-257", "result": "> 100 µM (inactive)"}, {"measurement": "GI50", "setting": "UACC-62", "result": "> 100 µM (inactive)"}, {"measurement": "GI50", "setting": "UO-31", "result": "34 µM (inactive)"}]}
